Laboratory results: paper PMC3234597, “Two Panels of Steroid Receptor Luciferase Reporter Cell Lines for Compound Profiling” (Combinatorial Chemistry & High Throughput Screening, 2011)
Like-named read-outs stand apart in the source and are kept apart here.

Legend:
Assay type in all cases: cell-based
[1] = molecular target: T1, AR-LBD fused to Gal4-DBD (co-expressed with full-length AR) (Homo sapiens, UniProt P10275); test: U2OS-AR-LBD/9xGal4UAS luciferase reporter cell line; settings: for Log EC50: agonist mode, AR-LBD/9xGal4UAS, 20 h, log10 of molar EC50, mean ± SEM
T1 construct: the following primers were used for the amplification of the LBD region; expressed in transfected cells; host or cells: U2OS
T1 sequence (P10275 669-900 limits assumed): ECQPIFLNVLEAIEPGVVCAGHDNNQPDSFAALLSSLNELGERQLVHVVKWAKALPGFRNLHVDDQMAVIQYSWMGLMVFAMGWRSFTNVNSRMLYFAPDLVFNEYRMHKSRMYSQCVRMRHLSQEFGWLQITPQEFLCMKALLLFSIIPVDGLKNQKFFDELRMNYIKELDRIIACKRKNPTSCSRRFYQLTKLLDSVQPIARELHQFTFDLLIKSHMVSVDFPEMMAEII

[2] = molecular target: T2, human GR (full-length) (Homo sapiens, UniProt P04150); test: U2OS-GR/MMTV luciferase reporter cell line (full-length receptor); settings: for Log EC50: agonist mode, 20 h, log10 of molar EC50, mean ± SEM; for Log EC50 / Log IC50: GR/MMTV; for Log IC50: antagonist mode, in the presence of 5 nM dexamethasone, log10 of molar IC50, mean ± SEM
T2 construct: expression vectors encoding full-length steroid receptors: pcDNA3-hAR and pcDNA3-hGR; host or cells: U2OS
T2 sequence (P04150 1-777): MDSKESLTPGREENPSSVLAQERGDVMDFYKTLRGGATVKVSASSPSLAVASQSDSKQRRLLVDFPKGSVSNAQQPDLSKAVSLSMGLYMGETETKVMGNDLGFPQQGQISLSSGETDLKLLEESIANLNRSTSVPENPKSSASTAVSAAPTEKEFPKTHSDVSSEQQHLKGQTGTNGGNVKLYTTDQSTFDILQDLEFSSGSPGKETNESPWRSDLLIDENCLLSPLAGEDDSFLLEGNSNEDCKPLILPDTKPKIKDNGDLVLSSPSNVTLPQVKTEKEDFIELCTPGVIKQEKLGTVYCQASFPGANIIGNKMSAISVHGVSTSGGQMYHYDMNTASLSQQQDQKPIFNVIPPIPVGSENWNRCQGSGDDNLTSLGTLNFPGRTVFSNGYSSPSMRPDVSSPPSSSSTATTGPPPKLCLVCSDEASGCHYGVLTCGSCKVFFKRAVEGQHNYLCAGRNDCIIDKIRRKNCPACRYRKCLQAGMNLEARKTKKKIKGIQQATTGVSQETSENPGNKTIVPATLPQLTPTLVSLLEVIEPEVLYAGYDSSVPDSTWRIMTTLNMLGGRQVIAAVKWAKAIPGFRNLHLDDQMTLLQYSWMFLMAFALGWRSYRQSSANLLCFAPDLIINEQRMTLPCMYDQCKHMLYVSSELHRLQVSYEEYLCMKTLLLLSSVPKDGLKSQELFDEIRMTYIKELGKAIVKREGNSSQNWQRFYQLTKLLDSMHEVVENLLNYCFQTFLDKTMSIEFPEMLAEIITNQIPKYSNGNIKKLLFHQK

[3] = molecular target: T3, GR-LBD fused to Gal4-DBD (Homo sapiens, UniProt P04150); test: U2OS-GR-LBD/9xGal4UAS luciferase reporter cell line; settings: for Log EC50: agonist mode, 20 h, log10 of molar EC50, mean ± SEM; for Log EC50 / Log IC50: GR-LBD/9xGal4UAS; for Log IC50: antagonist mode, in the presence of 5 nM dexamethasone, log10 of molar IC50, mean ± SEM
T3 construct: expressed in transfected cells; host or cells: U2OS
T3 sequence (P04150 524-758 limits assumed): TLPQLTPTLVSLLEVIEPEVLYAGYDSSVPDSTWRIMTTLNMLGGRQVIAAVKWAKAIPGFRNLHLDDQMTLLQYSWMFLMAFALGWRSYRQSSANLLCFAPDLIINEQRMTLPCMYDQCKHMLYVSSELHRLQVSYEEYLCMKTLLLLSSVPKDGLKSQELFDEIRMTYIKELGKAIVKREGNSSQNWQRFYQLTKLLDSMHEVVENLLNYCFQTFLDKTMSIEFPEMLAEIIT

[4] = molecular target: T4, PR-LBD fused to Gal4-DBD (Homo sapiens, UniProt P06401); test: U2OS-PR-LBD/9xGal4UAS luciferase reporter cell line; settings: for Log EC50: agonist mode, 20 h, log10 of molar EC50, mean ± SEM
T4 construct: PR-LBD region was PCR amplified using the following primer combination; host or cells: U2OS
T4 sequence (P06401 679-913 limits assumed): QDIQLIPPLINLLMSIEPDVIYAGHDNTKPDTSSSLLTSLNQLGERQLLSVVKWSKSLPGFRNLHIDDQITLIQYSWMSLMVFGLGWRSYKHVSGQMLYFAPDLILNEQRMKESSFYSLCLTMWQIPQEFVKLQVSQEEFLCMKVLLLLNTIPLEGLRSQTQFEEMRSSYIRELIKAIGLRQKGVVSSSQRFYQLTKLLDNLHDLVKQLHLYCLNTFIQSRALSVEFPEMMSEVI

[5] = molecular target: T5, ERβ-LBD fused to Gal4-DBD (Homo sapiens, UniProt Q92731); test: U2OS-ERβ-LBD/9xGal4UAS luciferase reporter cell line; settings: for EC50: read-out: Log EC50 (converted)
T5 construct: region comprising ERβ-LBD and a piece of the hinge region; expressed in transfected cells; host or cells: U2OS

[6] = molecular target: T6, human ERα (full-length) (Homo sapiens, UniProt P03372, G400V); test: U2OS-ERα/3xERE luciferase reporter cell line (full-length receptor); settings: for luciferase activity in ERα reporter cell lines: even at 10 μM concentration
T6 sequence (P03372 1-595 G400V): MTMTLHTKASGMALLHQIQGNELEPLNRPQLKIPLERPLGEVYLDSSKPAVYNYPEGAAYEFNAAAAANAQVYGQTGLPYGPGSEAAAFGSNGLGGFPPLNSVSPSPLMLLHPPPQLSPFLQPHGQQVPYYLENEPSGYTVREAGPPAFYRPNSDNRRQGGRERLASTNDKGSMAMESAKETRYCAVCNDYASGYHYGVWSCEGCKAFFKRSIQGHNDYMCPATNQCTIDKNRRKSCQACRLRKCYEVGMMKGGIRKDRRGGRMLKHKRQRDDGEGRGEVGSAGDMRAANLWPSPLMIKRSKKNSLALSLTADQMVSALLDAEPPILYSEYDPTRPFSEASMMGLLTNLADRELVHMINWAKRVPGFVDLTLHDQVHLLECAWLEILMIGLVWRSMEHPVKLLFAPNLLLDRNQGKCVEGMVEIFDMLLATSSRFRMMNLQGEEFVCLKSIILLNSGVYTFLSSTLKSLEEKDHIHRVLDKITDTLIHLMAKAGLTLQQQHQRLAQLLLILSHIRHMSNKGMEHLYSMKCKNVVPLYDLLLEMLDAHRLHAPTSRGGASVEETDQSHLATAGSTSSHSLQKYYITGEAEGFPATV

[7] = antagonist mode, PR-LBD/9xGal4UAS, log10 of molar IC50, mean ± SEM
[8] = antagonist mode, PR-LBD/9xGal4UAS, log10 of molar IC50, mean ± SEM, read-out: Log IC50 (converted)

T5 sequence (Q92731 264-498 limits assumed): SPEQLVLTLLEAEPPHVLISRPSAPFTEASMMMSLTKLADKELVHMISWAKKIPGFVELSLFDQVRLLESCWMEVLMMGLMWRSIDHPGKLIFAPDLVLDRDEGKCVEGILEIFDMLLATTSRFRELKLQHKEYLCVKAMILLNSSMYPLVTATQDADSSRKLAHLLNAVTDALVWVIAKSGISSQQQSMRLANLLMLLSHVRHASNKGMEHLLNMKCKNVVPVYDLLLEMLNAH

Row | SMILES | Log EC50 ([4]; PR-LBD/9xGal4UAS) | Log IC50 [4, 7] | EC50 [1] | EC50 ([2]; read-out: Log EC50 (converted)) | EC50 ([3]; read-out: Log EC50 (converted)) | IC50 [4, 8] | EC50 ([4]; read-out: Log EC50 (converted)) | EC50 [5] | EC50 [6] | other results
1 | CC[C@@H]1Cc2cc(O)ccc2C2=C1c1ccc(O)cc1C[C@H]2CC (relative stereo) [R.R-THC, (R,R)-cis-diethyltetrahydro-2,8-chrysenediol] | > -5.00 M | -5.52 ± 0.70 M | – | – | – | – | – | – | – | Log IC50 [1]: > -5.500 M; Log EC50 [1]: > -5.00 M; Log EC50 [2]: > -5.00 M; Log IC50 [2]: > -5.00 M; Log EC50 [3]: > -5.00 M; Log IC50 [3]: > -5.00 M; Log EC50 ([5]; agonist mode, ERβ-LBD/9xGal4UAS, 20 h, log10 of molar EC50, mean ± SEM): > -5.00 M; Log IC50 ([5]; antagonist mode, ERβ-LBD/9xGal4UAS, in the presence of 5 nM E2, log10 of molar IC50, mean ± SEM): -7.39 ± 0.15 M
2 | C[C@]12CCC(=O)C=C1CC[C@@H]1[C@@H]2[C@@H](O)C[C@]2(C=O)[C@@H](C(=O)CO)CC[C@@H]12 [Aldosterone, aldosterone] | – | – | > 10 µM | 0.209 µM | 1.15 µM | 3.72 µM | 1120 nM | > 10 µM | > 10 µM | –
3 | C[C@H]1C[C@H]2[C@@H]3CCC4=CC(=O)C=C[C@]4(C)[C@@]3(Cl)[C@@H](O)C[C@]2(C)[C@@]1(O)C(=O)CO [Beclomethasone, beclomethasone] | -5.20 ± 0.05 M | > -5.00 M | – | – | – | – | – | – | – | luciferase activity in ERα reporter cell lines [6]: did not find any sign of luciferase activity; Log EC50 ([6]; agonist mode, ERα/3xERE, 20 h, value is log10 of molar EC50, mean ± SEM): > -5.00 M; Log IC50 ([6]; antagonist mode, ERα/3xERE, in the presence of 1 nM E2, log10 of molar IC50, mean ± SEM): > -5.00 M
4 | C[C@]12C[C@H](O)[C@H]3[C@@H](CCC4=CC(=O)CC[C@@]43C)[C@@H]1CC[C@@H]2C(=O)CO [Corticosterone, corticosterone] | – | – | – | 0.0269 µM | 0.269 µM | > 10 µM | 72.4 nM | > 10 µM | > 10 µM | –
5 | C#C[C@]1(O)CC[C@H]2[C@@H]3CCC4=Cc5oncc5C[C@]4(C)[C@H]3CC[C@@]21C [Danazol, danazol] | – | – | – | > 10 µM | > 10 µM | 0.692 µM | 91.2 nM | > 10 µM | 4.37 µM | –
6 | O=c1c(-c2ccc(O)cc2)coc2cc(O)cc(O)c12 [Genistein, genistein] | – | – | > 10 µM | – | – | – | – | – | – | EC50 [2]: > 10 µM; EC50 [3]: > 10 µM; EC50 [4]: > 10000 nM; IC50 [4]: > 10 µM
7 | C[C@]12CC[C@@H]3c4ccc(O)cc4C[C@@H](CCCCCCCCC[S+]([O-])CCCC(F)(F)C(F)(F)F)[C@H]3[C@@H]1CC[C@@H]2O (some centres unmarked) [ICI 182.780] | > -5.00 M | > -5.00 M | – | – | – | – | – | – | – | Log IC50 [1]: > -5.00 M; Log EC50 [1]: > -5.00 M; Log EC50 [2]: > -5.00 M; Log IC50 [2]: > -5.00 M; Log EC50 [3]: > -5.00 M; Log IC50 [3]: > -5.00 M
8 | CCCc1c(-c2ccc(O)cc2)nn(-c2ccc(O)cc2)c1-c1ccc(O)cc1 [PPT, propyl pyrazole triol] | – | – | > 10 µM | > 10 µM | > 10 µM | > 10 µM | 4270 nM | > 10 µM | 0.0017 µM | –
9 | CCC(=O)[C@@]1(C)CC[C@H]2[C@@H]3CCC4=CC(=O)CCC4=C3CC[C@@]21C [Promegestone (R5020), promegestone] | – | – | > 10 µM | > 10 µM | > 10 µM | > 10 µM | 0.0129 nM | > 10 µM | > 10 µM | IC50 [1]: 0.407 µM
10 | C[C@]12C=CC(=O)C=C1CC[C@H]1[C@@H]3C[C@@H](O)[C@](O)(C(=O)CO)[C@@]3(C)C[C@H](O)[C@@]12F [Triamcinolone, triamcinolone] | – | – | – | 0.0129 µM | 0.0102 µM | > 10 µM | 58.9 nM | – | > 10 µM | luciferase activity in ERα reporter cell lines [6]: did not find any sign of luciferase activity
